Tests used:
helix [1] = conditions: aqueous solution, compared to the helices with thymidin; cited from earlier work
helix [2] = experiment: Destabilization of a helix in which thymidin is replaced; conditions: corresponding to the 16 kJ/mol destabilization
Excerpt: The importance of a complete H-bond network in nucleotide recognition has been investigated. Molecular recognition usually involves several H-bonds. The influence of unsatisfied interfacial H-bond functions can be seen in the destabilization of a helix in which thymidin is replaced by difluortoluoldesoxynucleosid. The experiments have shown that these helices exist in aqueous solution but are destabilized by 16 kJ/mol compared to the helices with thymidin (Moran et al., J. Am. Chem. Soc. 1997, 119: 2056-2057). The authors conclude that the specificity of base pair recognition may not be due to H-bonding but to space filling since the modified base is incorporated into the double helix even though the H-bond cannot be made. […] This value agrees well with the mismatched pairing observed for the incorporation of nucleotides into DNA by polymerase enzymes (1 in 10^3-10^5) (Loeb and Kunkel, Annu. Rev. Biochem. 1982: 52, 429) and the preference of correct tRNA compared to near cognate tRNA in the codon:anticodon recognition (1 in 10^−3.5) (Thompson and Karim, Proc. Natl. Acad. Sc. U.S.A. 1982, 79: 4922-26).

## Cc1cc([C@H]2C[C@H](O)[C@@H](CO)O2)c(F)cc1F [difluortoluoldesoxynucleosid]
Helix [1]
  destabilization of helices: 3.82 kcal/mol
Helix [2]
  reduced affinity: 1000-10000 times

From patent US8688387B2, “Method for the determination of intra- and intermolecular interactions in aqueous solution” (Bayer CropScience AG, priority 2006, dated 2014)
